Experimental data from article PMC11329928, “Design, synthesis and structure-activity relationship (SAR) studies of an unusual class of non-cationic fatty amine-tripeptide conjugates as novel synthetic antimicrobial agents” (Frontiers in Pharmacology, 2024).
Where a name gives a salt, the structure may show the parent alone.

What was measured:
Escherichia coli DH10B = assay: Growth inhibition screening of planktonic cultures (OD550/600); format: cell-based; set-up: key: (+++) full inhibition; (++) partial inhibition; (+) growth retardation; -: (−) no effect; details: E. coli DH10B, 50 and 100 μM compound added at T1, OD550/600 followed 10 h, 37°C
How it was run: (§1)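 Early exponential-phase cultures (OD550/600 c. a. 0.15–0.2) were treated with DICAMs at 50 and 100 μM final, diluted from DMSO stocks into medium, and incubated 10 h at 37°C. Turbidity (OD550/600) was read every 20 min against untreated controls to track growth inhibition and lysis.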

Staphylococcus aureus T = assay: as above; format: cell-based; set-up: key: (+++) full inhibition; (++) partial inhibition; (+) growth retardation; -: (−) no effect; details: S. aureus T, 50 and 100 μM compound added at T1, OD550/600 followed 10 h, 37°C
How it was run: as §1

[1] = system: Pseudomonas aeruginosa PAO1; assay: as above; format: cell-based; set-up: key: (+++) full inhibition; (++) partial inhibition; (+) growth retardation; -: (−) no effect; details: P. aeruginosa PAO1, 50 and 100 μM compound added at T1, OD550/600 followed 10 h, 37°C
How it was run: as §1

[2] = system: Pseudomonas aeruginosa PAO1; assay: Resting-cell viability (CFU) with 0.5 mM EDTA; format: cell-based; set-up: key to CFU's decay in the presence of 0.5 mM EDTA, Pa (data in parenthesis): (+) CFU, decay ∼1 log-unit; (−) ≤ 0.3 log-units; details: for CFU's decay in the presence of 0.5 mM EDTA, Pa (data in parenthesis): P. aeruginosa PAO1, 100 µM compound, 3 h incubation; for Decrease in bacterial viability compared to controls in EDTA-containing buffer, P. aeruginosa: P. aeruginosa PAO1, 100 µM, 20 mM Tris-HCl pH 7.5, 3 h, 37°C
Experimental: Addition of tested compounds to the culture medium had little or no effect on bacterial growth, even at a concentration of 100 μM (Table 1). Since inactivity could arise from the inability of DICAMs to cross the outer membrane, we next tested their effect on bacterial suspensions in the absence or the presence of 0.5 mM EDTA, an outer membrane permeating agent. A decrease of approximately 90% in bacterial viability was observed after 3 h treatment with DICAM 2 and DICAM 4, compared to controls in EDTA-containing buffer (Supplementary Figure S5). No variations were found with the other compounds tested (Table 1), showing that only DICAMs containing Ala/Asn- Pro -Glu tripeptides were able to access the cell membrane and kill these pathogens when the outer membrane permeability was enhanced.
For activity assays on resting cells, bacteria grown to exponential phase (OD600 ≈ 0.3) were centrifuged and washed with 20 mM Tris-HCl (pH 7.5), adjusting the final OD600 to ≈0.6 (≈10^8 CFU/mL) with the same buffer. If required, EDTA (0.5 mM final concentration) was next added and the bacterial suspension was dispensed (225 µL per well) in 96-well plates, and then treated with 100 µM DICAM (25 µL). Samples were incubated at 37°C for 3 h and turbidity measurements were taken at selected intervals, also measuring the decay in cell viability at the end of incubation. Controls with buffer (with and without 1% DMSO), 100 µM DICAM, or 0.5 mM EDTA were run in parallel.

[3] = Calcein release from LUVs; details: 10 μM DICAM, 25°C; for Leak of calcein from pure POPG LUVs, result in words: vesicle buffer (10 mM Tris, 140 mM NaCl, 0.5 mM EDTA, pH 7.4), fluorescence 480/550 nm, normalised to 0.025% Triton-X100; for Permeation of DOPE:POPG:CL (80:15:5) LUVs, result in words: vesicle buffer pH 7.4, calcein release
Experimental: LUVs were prepared for calceine liberation assays as described ([Chongsiriwatana and Barron, 2009]). Lipid composition (mole %) of LUVs was: POPG (100), POPG:CL (80:20), POPG:CL:DOPE ([…]), and POPG:CL:GlcDAG (75:5:20). Briefly, the nitrogen-dried lipid mixture was dissolved at 1.25 mM with 100 mM calceine in vesicle buffer (10 mM Tris, 140 mM NaCl, 0.5 mM EDTA, pH 7.4) followed by five thaw-freeze cycles. Calceine-entrapped LUVs were prepared by extrusion through 100 nm polycarbonate membranes (Avanti Polar Lipids). Non-entrapped calceine was separated from LUVs by gel filtration on a Sephacryl® S200-HR column (Sigma). LUVs permeabilization was monitored at 25°C by fluorescence emission at 550 nm (λex = 480 nm) as a function of time in a Fluoromax-4 spectrofluorometer (Horiba, France) using agitation. Signal stabilization of samples (1,500 µL vesicle buffer plus 45 µL LUVs) was recorded for 5 min before 10 µM final DICAM addition, and calcein release was monitored for a maximum of 20 min. After incubation, samples were solubilized in Triton X-100 (0.025%) and the fluorescence signal recorded thereafter was used to normalize the entire data set. Solubilization of DICAM-untreated LUVs in Triton X-100 was used as a positive control. No perturbation was detected in controls containing DMSO.

S. aureus T = assay: Growth inhibition and bacterial survival at 100 µM (Figure 6); format: cell-based, Staphylococcus aureus; details: 100 µM compound, BHI, 37°C; for S. aureus T growth, % of controls: five or more hours of incubation, increment in OD600 vs controls
Experimental: FIGURE 6 Antimicrobial effect of DICAMs active on S. aureus ^T. (A) Growth inhibition after culture challenge at 37°C with 100 μM of compound for 2, 5, and 6.5 h in BHI. Bars represent the percentage of the increment in OD600 for treated samples compared to controls and color goes from light to dark as time increases. “X” represents Ala, Asn, Glu or Orn. (B) Dependence of the kinetics of growth (OD600) (left panel) and bacterial population (right panel) on DICAM 14 dose. Bars in light and dark grey show bacterial populations of the initial inoculum and after incubation (3 and 5 h, respectively). Data shown are the average of three replicates, with error bars indicating the standard deviation of the mean.
Susceptibility to DICAMs was first tested by growth-inhibition assays at 50 and 100 μM of compound. Briefly, working solutions at 5 mM or 10 mM DICAM in pure DMSO were prepared from DICAM stocks (40 mM in pure DMSO) and diluted with fresh culture medium to 5× the desired final concentration. Aliquots (50 µL) of these solutions were added to 200 µL of bacterium cultures grown to early exponential phase (OD550/600 c. a. 0.15–0.2 in sterile 96-well plates (Cultek, Spain). Incubation continued for 10 h at 37°C and turbidity (OD550/600) values were measured every 20 min to monitor growth and lysis, using a VersaMax microplate reader (Molecular Devices; United Kingdom). Next, the activity dependence on DICAM’s dose was examined by measuring the turbidity of treated and untreated cultures as a function of time. Also, the decay of bacterial viability (CFU/mL) at selected times of treatment was assessed by colony counting on LB-agar or TSA plates after overnight incubation at 37°C. By default, 10 μL of 10-fold serially diluted samples were plated, which set the lower detection limit at 10^2 CFU/mL (10^1 CFU/mL when 100 μL of the undiluted sample was seeded).

Row | Molecule | Growth halt or lysis (50/100 μM), Ec (Escherichia coli DH10B) | Growth halt or lysis (50/100 μM), Sa T (Staphylococcus aureus T) | Growth halt or lysis (50/100 μM), Pa [1] | CFU's decay in the presence of 0.5 mM EDTA, Pa (data in parenthesis) [2] | Decrease in bacterial viability compared to controls in EDTA-containing buffer, P. aeruginosa [2] | Leak of calcein from pure POPG LUVs, result in words [3] | Permeation of DOPE:POPG:CL (80:15:5) LUVs, result in words [3] | S. aureus T growth, % of controls (S. aureus T) | Permanent fall in bacterial survival (S. aureus T; S. aureus T, 5 h incubation)
1 | CCCCCCCCCCCCCCCCCCNC(=O)[C@H](CCC(=O)O)NC(=O)[C@H]1CCCN1C(=O)[C@@H](N)CCCN [DICAM 22, Orn- Pro -Glu-NH-C18H37 · HCl] | - | + | - |  |  |  |  |  | 
2 | CCCCCCCCCCCCCCCCCCNC(=O)[C@H](CCC(=O)O)NC(=O)[C@H]1CCCN1C(=O)[C@H](C)N [DICAM 4, Ala- Pro -Glu-NH-C18H37 ·HCl] | - | ++ | - | (+) | approximately 90% | full | did not permeate | ≈ 25 % of controls | 
3 | CCCCCCCCCCCCCCCCCCNC(=O)[C@H](CCC(=O)O)NC(=O)[C@H]1CCCN1C(=O)[C@@H](N)CC(N)=O [DICAM 2, Asn- Pro -Glu-NH-C18H37 ·HCl] | - | ++ | - | (+) | approximately 90% |  | did not permeate |  | 
4 | Ala - Pro -Glu-NH-C18H37 · HCl [DICAM 23] | - | ++ | - |  |  | full |  | ≈ 25 % of controls | 
5 | CCCCCCCCCCCCCCCCCCNC(=O)[C@H](CCC(=O)O)NC(=O)[C@H]1CCCN1C(=O)[C@H](CCCN)NC(=O)OCc1ccccc1 [DICAM 21, Cbz-Orn- Pro -Glu-NH-C18H37] | - | + | - |  |  |  | able to permeate and release calcein |  | 
6 | CCCCCCCCCCCCCCCCCCNC(=O)[C@H](C)NC(=O)[C@H]1CCCN1C(=O)[C@H](C)N [DICAM 14, Ala- Pro -Ala-NH-C18H37 · HCl] | - | +++ | - | (−) ((−) ≤ 0.3 log-units) |  |  |  |  | ≈ 85%
7 | CCCCCCCCCCCCCCCCCCNC(=O)[C@H](CCC(=O)O)NC(=O)[C@H]1CCCN1C(=O)[C@H](C)NC(=O)OCc1ccccc1 [DICAM 3, Cbz-Ala- Pro -Glu-NH-C18H37] | - | - | - | (−) ((−) ≤ 0.3 log-units) |  |  |  |  | 
8 | CCCCCCCCCCCCCCCCCCNC(=O)[C@H](CCC(=O)O)NC(=O)[C@H]1CCCN1C(=O)[C@H](C)NC(C)=O [DICAM 24, Ac-Ala- Pro -Glu-NH-C18H37] | - | ++ |  |  |  |  |  |  | 
9 | CCCCCCCCCCCCCCCCCCNC(=O)[C@H](CCC(=O)O)NC(=O)[C@H]1CCCN1C(=O)[C@@H](N)CCC(=O)O [DICAM 20, Glu- Pro -Glu-NH-C18H37 · HCl] | - | ++ | - |  |  | partial |  |  | 
10 | CCCCCCCCCCCCCCCCCCNC(=O)[C@H](CCC(=O)O)NC(=O)[C@H]1CCCN1C(=O)[C@H](CCC(=O)O)NC(=O)OCc1ccccc1 [DICAM 19, Cbz-Glu- Pro -Glu-NH-C18H37] | - | + | - |  |  |  |  |  | 
11 | CCCCCCCCCCCCCCCCNC(=O)[C@H](CCC(=O)O)NC(=O)[C@H]1CCCN1C(=O)[C@H](CC(N)=O)NC(=O)OCc1ccccc1 [DICAM 10, Cbz-Asn- Pro -Glu-NH-C16H33] |  |  | - |  |  |  |  |  | 
12 | CCCCCCCCCCCCCCCCCCNC(=O)[C@H](CCC(=O)O)NC(=O)[C@H]1CCCN1C(=O)[C@H](CC(N)=O)NC(=O)OCc1ccccc1 [DICAM 1, Cbz-Asn- Pro -Glu-NH-C18H37] |  |  | - |  |  |  |  |  | 
